Experiments:
[1] = test system: Spodoptera frugiperda; assay: Spodoptera frugiperda spray test; format: in vivo; details: 168 h, after 7 days
Experimental: Suodontera frugiuerda—Spray Test Solvent: 78.0 parts by weight acetone • 1.5 parts by weight dimethylformamide Emulsifier: alkylarylpolyglycol ether
(§1) To produce a suitable preparation of active compound, 1 part by weight of active compound is mixed with the stated amount of solvents and is diluted with water, containing an emulsifier concentration of 1000 ppm, to the desired concentration. Further test concentrations are prepared by dilution with emulsifier containing water.
Maize (Zea mays) leaf sections are sprayed with a preparation of the active ingredient of the desired concentration. Once dry, the leaf sections are infested with fall armyworm larvae (Spodoptera frugiperda).
After 7 days mortality in % is determined. 100% means all caterpillars have been killed and 0% means none of the caterpillars have been killed.

[2] = log P by HPLC on reversed phase, neutral range; format: physicochemical; details: reversed phase HPLC column, LC-UV, 0.001 molar ammonium acetate solution in water and acetonitrile
Experimental: Measurement of log P values was performed according to EEC directive 79/831 Annex V.A8 by HPLC (High Performance Liquid Chromatography) on reversed phase columns with the following methods. Instrument(s): Agilent 1100 LC system, Agilent MSD system, HTS PAL; Waters IClass Acquity UPLC, SQD2 (MS), PDA (UV). […] Calibration was done with straight-chain alkan-2-ones (with 3 to 16 carbon atoms) with known log P values (measurement of log P values using retention times with linear interpolation between successive alkanones). Lambda-max-values were determined using UV-spectra from 200 nm to 400 nm and the peak values of the chromatographic signals.

[3] = test system: Myzus persicae; assay: Myzus persicae oral test; format: in vivo; details: 120 h, after 5 days
Experimental: Myzus persicae—Oral Test Solvent: 100 parts by weight acetone
To produce a suitable preparation of active compound, 1 part by weight of active compound is mixed with the stated amount of solvent, and the concentrate is diluted with water to the desired concentration.
50 μl compound solution is filled in microtiter plates and 150 μl IPL41 insect medium (33%+15% sugar) is added to obtain a total volume of 200 μl per well. Afterwards the plates are sealed with parafilm through which a mixed population of the green peach aphid (Myzus persicae) can suck on the compound preparation.
After 5 days mortality in % is determined. 100% means all aphids have been killed and 0% means none of the aphids have been killed.

[4] = test system: Diabrotica balteata; assay: Diabrotica balteata spray test; format: in vivo; details: 168 h, 160 gg/well, after 7 days, read-out: efficacy (seedlings grown)
Experimental: Diabrotica balteata—Spray Test Solvent: 78.0 parts by weight of acetone • • 1.5 parts by weight of dimethylformamide Emulsifier: alkylarylpolyglycol ether
as §1, with “solvent,” for “solvents”, “and the concentrate” for “and”
Soaked wheat seeds (Triticum aestivum) are placed in a multiple well plate filled with agar and some water and are incubated for 1 day to germinate (5 seeds per well). The germinated wheat seeds are sprayed with a test solution containing the desired concentration of the active ingredient. Afterwards each unit is infected with 10-20 larvae of the banded cucumber beetle (Diabrotica balteata).
After 7 days efficacy in % is determined. 100% means all the seedlings have grown up like in the untreated, uninfected control; 0% means none of the seedlings have grown.

[5] = test system: Phaedon cochleariae; assay: Phaedon cochleariae spray test; format: in vivo; details: 168 h, after 7 days
Experimental: Phaedon cochleariae—Spray Test Solvent: 78.0 parts by weight of acetone • • 1.5 parts by weight of dimethylformamide Emulsifier: alkylarylpolyglycol ether
as §1
Chinese cabbage (Brassica pekinensis) leaf disks are sprayed with a preparation of the active ingredient of the desired concentration. Once dry, the leaf disks are infested with mustard beetle larvae (Phaedon cochleariae).
After 7 days mortality in % is determined. 100% means all beetle larvae have been killed and 0% means none of the beetle larvae have been killed.

[6] = test system: Boophilus microplus; assay: Boophilus microplus injection test; format: in vivo; details: Rhipicephalus microplus, 168 h; 20 gg/animal, injection into abdomen, after 7 days; read-out: efficacy (infertile eggs)
Experimental: Boophilus microplus—Injection Test Solvent: dimethyl sulfoxide To produce a suitable preparation of active compound, 10 mg of active compound are dissolved in 0.5 ml solvent, and the concentrate is diluted with solvent to the desired concentration. Five adult engorged female ticks (Boophilus microplus) are injected with 1 μl compound solution into the abdomen. The ticks are transferred into replica plates and incubated in a climate chamber. After 7 days egg deposition of fertile eggs is monitored. Eggs where fertility is not visible are stored in a climate chamber till hatching after about 42 days. An efficacy of 100% means all eggs are infertile; 0% means all eggs are fertile.

[7] = test system: Aedes aegypti strain MONHEIM; assay: Aedes aegypti test (AEDSAE surface treatment & contact assay); format: in vivo; details: surface concentration 20 mg/m^2, 30 minutes exposure, 24 hours after contact, read-out: efficacy (mortality)
Experimental: Aedes aegyti Test (AEDSAE Surface Treatment & Contact Assay) Solvent: Aceton+2000 ppm rapeseed oil methyl ester (RME)
(§2) In order to produce a sufficient, active ingredient containing solution it is necessary to solve the test compound in the solvent-mix (acetone at 2 mg/ml/RME 2000 ppm). This solution is pipetted onto a glazed tile and after evaporation of the acetone, adult mosquitoes of the species Aedes aegypti strain MONHEIM are placed onto the dried surface. The exposure time is 30 minutes.
(§3) Mortality in percent (%) is determined 24 hours after contact to the treated surface. 100% mortality means that all tested insects are dead, whereas 0% means that no insect died.

[8] = test system: Ctenocephalides felis; assay: Ctenocephalides felis oral test; format: in vivo; details: 48 h, 100 ppm in cattle blood, after 2 days
Experimental: Ctenocephalides felis—Oral Test Solvent: dimethyl sulfoxide
To produce a suitable preparation of active compound, 10 mg of active compound are dissolved in 0.5 ml solvent, and the concentrate is diluted with cattle blood to the desired concentration.
Approximately 20 adult unfed cat fleas (Ctenocephalides felis) are placed in flea chambers. The blood chamber, sealed with parafilm on the bottom, are filled with cattle blood supplied with compound solution and placed on the gauze covered top of the flea chamber, so that the fleas are able to suck the blood. The blood chamber is heated to 37° C. whereas the flea chamber is kept at room temperature.
After 2 days mortality in % is determined. 100% means all the fleas have been killed; 0% means none of the fleas have been killed.

[9] = test system: Rhipicephalus sanguineus; assay: Rhipicephalus sanguineus in-vitro contact test, adult brown dog ticks; format: in vivo; details: 5 gg/cm^2, after 48 hours
Experimental: (§4) 9 mg compound is solved in 1 ml acetone and diluted with acetone to the desired concentration. 250 μl of the test solution is filled in 25 ml glass test tubes and homogeneously distributed on the inner walls by rotation and tilting on a shaking device (2 h at 30 rpm). With a compound concentration of 900 ppm, an inner surface of 44.7 cm^2 and a homogeneous distribution, a dose of 5 μg/cm^2 is achieved.
(§5) After the solvent has evaporated, each test tube is filled with 5-10 adult brown dog ticks (Rhipicephalus sanguineus), closed with a perforated lid and incubated in a lying position at room temperature and relative humidity. After 48 hours efficacy is determined. The ticks are patted on the ground of the tubes and are incubated on a heating plate at 45-50° C. for at most 5 minutes. Immotile or uncoordinated moving ticks, which are not able to escape the heat by climbing upwards, are marked as dead or moribund.
An efficacy of 100% means all ticks are dead or moribund; 0% means no ticks are dead or moribund.

[10] = test system: Ctenocephalides felis; assay: Ctenocephalides felis in-vitro contact test, adult cat flea; format: in vivo; details: 5 μg/cm^2, after 48 hours
Experimental: as §4
as §5, with “cat fleas (Ctenocephalides felis),” for “brown dog ticks (Rhipicephalus sanguineus),”, “fleas” for “ticks”, “fleas,” for “ticks,”
An efficacy of 100% means all fleas are dead or moribund; 0% means no fleas are dead or moribund.

[11] = test system: Nilaparvata lugens; assay: Nilaparvata lugens spray test; format: in vivo; details: 96 h, after 4 days
Experimental: Nilaparvata lugens—Spray Test Solvent: 78.0 parts by weight of acetone • • 1.5 parts by weight of dimethylformamide Emulsifier: alkylarylpolyglycol ether
as §1
Rice plants (Oryza sativa) are sprayed with a preparation of the active ingredient of the desired concentration and the plants are infested with the brown planthopper (Nilaparvata lugens).
After 4 days mortality in % is determined. 100% means all planthoppers have been killed and 0% means none of the planthoppers have been killed.

[12] = test system: Culex quinquefasciatus strain P00; assay: whole plant or invertebrate; format: in vivo; details: read-out: efficacy (mortality)
Experimental: Culex quinquefasciatus Test (CULXFA Surface Treatment & Contact Assay) Solvent: Aceton+2000 ppm rapeseed oil methyl ester (RME)
as §2, with “Culex quinquefasciatus” for “Aedes aegypti”, “P00” for “MONHEIM”
as §3

[13] = test system: Anopheles funestus strain FUMOZ-R; assay: whole plant or invertebrate; format: in vivo; details: read-out: efficacy (mortality)
Experimental: Anopheles funestus Test (ANPHFU Surface Treatment & Contact Assay) Solvent: Aceton+2000 ppm rapeseed oil methyl ester (RME)
as §2, with “Anopheles funestus” for “Aedes aegypti”, “FUMOZ-R (Hunt et al., Med. Vet. Entomol. 2005 September; 19(3): 271-275)” for “MONHEIM”
as §3

Row | SMILES | mortality at 20 ppm [3] | pest or weed control at 160 µg/well [4] | mortality at 500 g/ha [5] | pest or weed control at 0.02 mg [6] | mortality at 100 ppm [8] | further results
1 | COC[C@H](NC(=O)c1cc(Cl)cc(OC(F)(F)F)c1)c1ncnn1-c1ccc(C#N)cn1 [Example I-018] |  |  |  |  |  | mortality at 500 g/ha [1]: 100%
2 | COCC(NC(=O)c1cc(Cl)cc(C(F)(F)F)c1)C(N)=O (stereo not shown) [n-001, N-(1-amino-3-methoxy-1-oxopropan-2-yl)-3-chloro-5-(trifluoromethyl)benzamide] |  |  |  |  |  | chromatographic logP [2]: 1.94
3 | O=C(NCCc1ncnn1-c1ncccn1)c1cc(Cl)cc(C(F)(F)F)c1 [Example I-006] | 100% | 100% | 100% | 100% | 100% | mortality at 20 mg/m2 [7]: 85 to 100%
4 | O=C(c1cc(Cl)cc(Cl)c1)N(Cc1ncnn1-c1ncccn1)CC1CC1 [Example I-010] | 100% | 100% | 100% |  |  | 
5 | N#Cc1ccc(-n2ncnc2CCN)nc1 [a-003] |  |  |  |  |  | chromatographic logP [2]: 0.87
6 | O=C(NC(CC1CC1)c1ncnn1-c1ncccn1)c1cc(Cl)cc(C(F)(F)F)c1 (stereo not shown) [Example I-007] | 100% |  |  |  |  | 
7 | NCCc1ncnn1-c1ncccn1 [a-002] |  |  |  |  |  | chromatographic logP [2]: 0.01
8 | O=C(NC(c1ncnn1-c1ncccn1)C1CC1)c1cc(Cl)cc(C(F)(F)F)c1 (stereo not shown) [Example I-008] |  |  | 100% | 95% | 100% | 
9 | COCC(NC(=O)c1cc(Cl)cc(C(F)(F)F)c1)c1ncnn1-c1ccc(C#N)cn1 (stereo not shown) [Example I-013] |  |  |  | 100% | 100% | mortality at 500 g/ha [1]: 100%
10 | O=C(NC1(c2ncnn2-c2ncccn2)CC1)c1cc(C(F)(F)F)cc(C(F)(F)F)c1 [Example I-014] |  |  |  | 100% |  | 
11 | O=C(c1cccc(C(F)(F)F)c1)N(Cc1ncnn1-c1ncccn1)CC1CC1 [Example I-003] | 100% | 100% | 100% | 100% |  | 
12 | COCC(NC(=O)c1cc(Cl)cc(C(F)(F)F)c1)c1ncnn1-c1ncccn1 (stereo not shown) [Example I-012, 3-Chloro-N-{2-methoxy-1-[1-(pyrimidin-2-yl)-1H-1,2,4-triazol-5-yl]ethyl}-5-(trifluoromethyl)-benzamide] | 100% | 100% | 100% | 100% | 100% | efficacy (ticks dead or moribund) [9]: 80%; efficacy (fleas dead or moribund) [10]: 100%; mortality at 500 g/ha [11]: 100%
13 | COC[C@H](NC(=O)c1cc(Cl)cc(Cl)c1)c1ncnn1-c1ccc(C#N)cn1 [Example I-017] |  |  |  |  |  | efficacy (fleas dead or moribund) [10]: 90%; mortality at 500 g/ha [1]: 100%
14 | O=C(NCc1ncnn1-c1ncccn1)c1cc(Cl)cc(C(F)(F)F)c1 [Example I-005] | 100% | 100% | 100% | 100% | 100% | efficacy (ticks dead or moribund) [9]: 100%; mortality at 4 mg/m2 [12]: 85 to 100%; mortality at 20 mg/m2 [12]: 85 to 100%; efficacy (fleas dead or moribund) [10]: 100%; mortality at 500 g/ha [1]: 100%; mortality at 20 mg/m2 [7]: 85 to 100%; mortality at 4 mg/m2 [13]: 85 to 100%; mortality at 20 mg/m2 [13]: 85 to 100%
15 | O=C(c1cc(Cl)nc(Cl)c1)N(Cc1ncnn1-c1ncccn1)CC1CC1 [Example I-002] | 100% | 100% | 100% |  | 80% | 

Reference: patent US20220002268A1, “NOVEL HETEROARYL-TRIAZOLE AND HETEROARYL-TETRAZOLE COMPOUNDS AS PESTICIDES” (Bayer Aktiengesellschaft, priority 2019, published 2022)
